Data as given in patent publication US20260085062A1, “NOVEL COMPOUNDS AS CK2 INHIBITORS” (Cambridge Enterprise Limited, priority 2022, published 2026).

Tests used:
[1] = target: T1, CK2α (Homo sapiens, UniProt P68400); test: Biochemical assay for inhibitors of CK2α kinase activity (ADP-Glo); settings: 0.2 nM CK2α, 50 μM peptide substrate, 15 μM ATP, read-out: Assay 1: CK2α Enzyme IC50
T1 construct: CK2α (residues 2-329) was produced in Escherichia coli BL21 (DE3) for kinase activity screening; His6 (N, cleaved yes); made in house; host or cells: Escherichia coli BL21 (DE3)
T1 sequence (P68400 2-329): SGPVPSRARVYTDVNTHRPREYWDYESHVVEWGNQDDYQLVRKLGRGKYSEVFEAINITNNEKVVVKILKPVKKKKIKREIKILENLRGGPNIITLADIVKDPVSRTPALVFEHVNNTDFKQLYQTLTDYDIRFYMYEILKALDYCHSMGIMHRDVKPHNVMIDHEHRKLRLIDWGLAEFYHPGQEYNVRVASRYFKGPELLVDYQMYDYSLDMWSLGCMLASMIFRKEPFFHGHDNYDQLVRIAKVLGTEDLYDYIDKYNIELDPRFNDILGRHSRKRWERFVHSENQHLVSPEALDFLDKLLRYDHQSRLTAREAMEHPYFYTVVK

[2] = target: T2, CLK2 (Homo sapiens, UniProt P49760); test: Biochemical assay for inhibitors of CLK2 kinase activity (ADP-Glo); settings: 20 nM CLK2, 50 μM peptide substrate, 100 μM ATP, read-out: Assay 2: CLK2 Enzyme IC50
T2 construct: purchased Carna Biosciences 04-127

[3] = target: T3, intracellular CK2α (Homo sapiens, UniProt P19784); test: Cell-based NanoBRET assay for inhibitor binding to intracellular CK2α; settings: HCT116 cells transiently transfected with CSNK2A2-NanoLuc fusion vector; Tracer K-5; 2 h; read-out: Assay 3: NanoBRET ™ assay for binding to intracellular CK2α
T3 construct: host or cells: HCT116 (ATCC CCL-247)
Summary of the method: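 Living cells expressing NanoLuc-CK2α fusion were given a fixed tracer concentration, and compounds competitively displaced the reversibly bound tracer. Donor (450 nm) and acceptor (610 or 630 nm) emissions were read; BRET ratio = (acceptor/donor)×1,000, giving apparent intracellular affinity.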

T3 sequence (P19784 whole entry, the tested form may be a part): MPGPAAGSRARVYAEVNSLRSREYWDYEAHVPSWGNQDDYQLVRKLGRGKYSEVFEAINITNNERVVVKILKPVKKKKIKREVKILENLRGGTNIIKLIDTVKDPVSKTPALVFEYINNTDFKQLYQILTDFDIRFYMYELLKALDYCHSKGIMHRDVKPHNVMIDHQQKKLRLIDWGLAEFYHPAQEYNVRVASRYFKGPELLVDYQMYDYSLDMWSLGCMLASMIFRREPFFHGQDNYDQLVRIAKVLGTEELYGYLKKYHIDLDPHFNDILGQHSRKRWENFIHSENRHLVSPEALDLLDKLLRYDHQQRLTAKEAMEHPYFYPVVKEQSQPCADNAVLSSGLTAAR
T2 sequence (P49760 whole entry): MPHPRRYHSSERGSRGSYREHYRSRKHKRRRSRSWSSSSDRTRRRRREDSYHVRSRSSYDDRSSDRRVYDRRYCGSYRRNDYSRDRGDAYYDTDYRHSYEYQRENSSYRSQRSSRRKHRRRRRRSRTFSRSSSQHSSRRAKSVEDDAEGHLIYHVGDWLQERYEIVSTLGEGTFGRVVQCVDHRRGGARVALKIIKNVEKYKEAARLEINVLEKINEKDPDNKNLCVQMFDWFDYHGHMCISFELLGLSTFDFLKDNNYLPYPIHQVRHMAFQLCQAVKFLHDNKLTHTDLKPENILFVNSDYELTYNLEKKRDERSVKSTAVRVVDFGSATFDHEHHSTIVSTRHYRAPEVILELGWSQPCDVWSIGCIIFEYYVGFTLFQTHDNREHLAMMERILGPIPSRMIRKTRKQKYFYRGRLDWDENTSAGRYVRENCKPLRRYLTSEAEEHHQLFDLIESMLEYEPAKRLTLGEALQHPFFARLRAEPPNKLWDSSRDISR

SMILES | IC50 [1] [nM] | IC50 [2] [nM] | IC50 [3] [nM]
FC(F)(F)Oc1ccc(CNCCCCOCCNc2cc(-c3ccnnc3)cc3[nH]nnc23)cc1Cl [Example 99, N-(2-(4-((3-chloro-4-(trifluoromethoxy)benzyl)amino)butoxy)ethyl)-6-(pyridazin-4-yl)-1H-benzo[d][1,2,3]triazol-4-amine] | 20.1 | 28000 | 1010
FC(F)(F)c1ccc2[nH]c(CNCCCCOCCNc3cc(-c4ccnnc4)cc4[nH]nnc34)cc2c1 [Example 100, 6-(pyridazin-4-yl)-N-(2-(4-(((5-(trifluoromethyl)-1H-indol-2-yl)methyl)amino)butoxy)ethyl)-1H-benzo[d][1,2,3]triazol-4-amine] | 22.3 | 22900 | 1410
FC(F)(F)c1ccc2[nH]c(CNCCCCOCCOc3cc(-c4ccnnc4)cc4[nH]nnc34)cc2c1 [Example 101, 4-(2-((6-(pyridazin-4-yl)-1H-benzo[d][1,2,3]triazol-4-yl)oxy)ethoxy)-N-((5-(trifluoromethyl)-1H-indol-2-yl)methyl)butan-1-amine] | 223 | 48600 | > 50000
FC(F)(F)Oc1ccc(CNCCCCOCCOc2cc(-c3ccnnc3)cc3[nH]nnc23)cc1Cl [Example 102, N-(3-chloro-4-(trifluoromethoxy)benzyl)-4-(2-((6-(pyridazin-4-yl)-1H-benzo[d][1,2,3]triazol-4-yl)oxy)ethoxy)butan-1-amine] | 393 | 43000 | > 50000
N#CCc1cc(F)cc(CNCCCCOC2CN(c3cc(-n4cnnc4)cc4[nH]ncc34)C2)c1 [Example 103, 2-(3-(((4-((1-(6-(4H-1,2,4-triazol-4-yl)-1H-indazol-4-yl)azetidin-3-yl)oxy)butyl)amino)methyl)-5-fluorophenyl)acetonitrile] | 26.5 | 129 | 10700
OCc1cc(CNCCCCOC2CN(c3cc(-n4cnnc4)cc4[nH]ncc34)C2)cc(C(F)(F)F)c1 [Example 104, (3-(((4-((1-(6-(4H-1,2,4-triazol-4-yl)-1H-indazol-4-yl)azetidin-3-yl)oxy)butyl)amino)methyl)-5-(trifluoromethyl)phenyl)methanol] | 64.2 | 264 | 14900
N#CCc1cc(CNCCCCOC2CN(c3cc(-n4cnnc4)cc4[nH]ncc34)C2)cc(C(F)(F)F)c1 [Example 105, 2-(3-(((4-((1-(6-(4H-1,2,4-triazol-4-yl)-1H-indazol-4-yl)azetidin-3-yl)oxy)butyl)amino)methyl)-5-(trifluoromethyl)phenyl)acetonitrile] | 21.6 | 167 | 5340
Cc1cc(CC#N)cc(CNCCCCOC2CN(c3cc(-n4cnnc4)cc4[nH]ncc34)C2)c1 [Example 106, 2-(3-(((4-((1-(6-(4H-12,4-triazol-4-yl)-1H-indazol-4-yl)azetidin-3-yl)oxy)butyl)amino)methyl)-5-methylphenyl)acetonitrile] | 41.7 | 368 | 26600
FC(F)(F)Oc1ccc(CNCCCCOC2CN(c3cc(-c4ccnnc4)cc4[nH]ncc34)C2)cc1Cl [Example 107, N-(3-chloro-4-(trifluoromethoxy)benzyl)-4-((1-(6-(pyridazin-4-yl)-1H-indazol-4-yl)azetidin-3-yl)oxy)butan-1-amine] | 28.1 | 2640 | 3740
Fc1cc(CNCCCCOC2CN(c3cc(-c4ccnnc4)cc4[nH]ncc34)C2)ccc1OC(F)(F)F [Example 108, N-(3-fluoro-4-(trifluoromethoxy)benzyl)-4-((1-(6-(pyridazin-4-yl)-1H-indazol-4-yl)azetidin-3-yl)oxy) butan-1-amine] | 20.9 | 2730 | 2380
c1cc(-c2cc(N3CC(OCCCCNCc4cc5cc(OC6CCC6)ccc5[nH]4)C3)c3cn[nH]c3c2)cnn1 [Example 109, N-((5-cyclobutoxy-1H-indol-2-yl)methyl)-4-((1-(6-(pyridazin-4-yl)-1H-indazol-4-yl)azetidin-3-yl)oxy)butan-1-amine] | 42.5 | 2920 | 2810
OCc1cc(F)cc(CNCCCCOC2CN(c3cc(-c4ccnnc4)cc4[nH]ncc34)C2)c1 [Example 110, (3-fluoro-5-(((4-((1-(6-(pyridazin-4-yl)-1H-indazol-4-yl)azetidin-3-yl)oxy)butyl)amino)methyl)phenyl)methanol] | 384 | 2720 | 20600
OCc1cc(Cl)cc(CNCCCCOC2CN(c3cc(-c4ccnnc4)cc4[nH]ncc34)C2)c1 [Example 111, (3-chloro-5-(((4-((1-(6-(pyridazin-4-yl)-1H-indazol-4-yl)azetidin-3-yl)oxy)butyl)amino)methyl)phenyl)methanol] | 228 | 2300 | 14200
OCc1cc(CNCCCCOC2CN(c3cc(-c4ccnnc4)cc4[nH]ncc34)C2)cc(C(F)(F)F)c1 [Example 112, (3-(((4-((1-(6-(pyridazin-4-yl)-1H-indazol-4-yl)azetidin-3-yl)oxy)butyl)amino)methyl)-5-(trifluoromethyl)phenyl)methanol] | 205 | 633 | 14000
N#CCc1cc(F)cc(CNCCCCOC2CN(c3cc(-c4ccnnc4)cc4[nH]ncc34)C2)c1 [Example 113, 2-(3-fluoro-5-(((4-((1-(6-(pyridazin-4-yl)-1H-indazol-4-yl)azetidin-3-yl)oxy)butyl)amino)methyl)phenyl)acetonitrile] | 67.5 | 2710 | 8090
N#CCc1cc(CNCCCCOC2CN(c3cc(-c4ccnnc4)cc4[nH]ncc34)C2)cc(C(F)(F)F)c1 [Example 114, 2-(3-(((4-((1-(6-(pyridazin-4-yl)-1H-indazol-4-yl)azetidin-3-yl)oxy)butyl)amino)methyl)-5-(trifluoromethyl)phenyl)acetonitrile] | 50.5 | 2150 | 2520
Cc1cc(CC#N)cc(CNCCCCOC2CN(c3cc(-c4ccnnc4)cc4[nH]ncc34)C2)c1 [Example 115, 2-(3-methyl-5-(((4-((1-(6-(pyridazin-4-yl)-1H-indazol-4-yl)azetidin-3-yl)oxy)butyl)amino)methyl)phenyl)acetonitrile] | 115 | 6460 | 9910
FC(F)(F)c1ccc2[nH]c(CNCCCCOCCOc3cc(-n4cnnc4)cc4[nH]nnc34)cc2c1 [Example 116, 4-(2-((6-(4H-1,2,4-triazol-4-yl)-1H-benzo[d][1,2,3]triazol-4-yl)oxy)ethoxy)-N-((5-(trifluoromethyl)-1H-indol-2-yl)methyl)butan-1-amine] | 247 | > 50000 | > 50000
FC(F)(F)c1ccc2[nH]c(CNCCCCOCCOc3cc(-n4cnnc4)cc4[nH]ncc34)cc2c1 [Example 117, 4-(2-((6-(4H-1,2,4-triazol-4-yl)-1H-indazol-4-yl)oxy)ethoxy)-N-((5-(trifluoromethyl)-1H-indol-2-yl)methyl)butan-1-amine] | 3 | 1260 | 214
c1cc2[nH]c(CNCCCCOCCOc3cc(-n4cnnc4)cc4[nH]ncc34)cc2cc1OC1CCC1 [Example 118, 4-(2-((6-(4H-1,2,4-triazol-4-yl)-1H-indazol-4-yl)oxy)ethoxy)-N-((5-cyclobutoxy-1H-indol-2-yl)methyl)butan-1-amine] | 0.86 | 1100 | 204
c1cc2[nH]c(CNCCCCOC3CN(c4cc(-c5cnoc5)cc5[nH]ncc45)C3)cc2cc1OC1CCC1 [Example 119, N-((5-cyclobutoxy-1H-indol-2-yl)methyl)-4-((1-(6-(isoxazol-4-yl)-1H-indazol-4-yl)azetidin-3-yl)oxy)butan-1-amine] | 22.6 | 617 | 1620
OCc1cc(CNCCCCOC2CN(c3cc(-c4cnoc4)cc4[nH]ncc34)C2)cc(C(F)(F)F)c1 [Example 120, (3-(((4-((1-(6-(isoxazol-4-yl)-1H-indazol-4-yl)azetidin-3-yl)oxy)butyl)amino)methyl)-5-(trifluoromethyl)phenyl)methanol] | 84.6 | 141 | 3250
Cc1cc(CC#N)cc(CNCCCCOC2CN(c3cc(-c4cnoc4)cc4[nH]ncc34)C2)c1 [Example 121, 2-(3-(((4-((1-(6-(isoxazol-4-yl)-1H-indazol-4-yl)azetidin-3-yl)oxy)butyl)amino)methyl)-5-methylphenyl)acetonitrile] | 44.9 | 209 | 3670
N#CCc1cc(Cl)cc(CNCCCCOC2CN(c3cc(-c4cnoc4)cc4[nH]ncc34)C2)c1 [Example 122, 2-(3-chloro-5-(((4-((1-(6-(isoxazol-4-yl)-1H-indazol-4-yl)azetidin-3-yl)oxy)butyl)amino)methyl)phenyl)acetonitrile] | 29.8 | 106 | 840
